{"source": "patent US5330989A", "about": "“Heterocycles substituted with biphenyl-3-cyclobutene-1,2-dione derivatives” (American Home Products Corporation, priority 1992, dated 1994)", "tested_on": "A II-infused rat", "assay": "A II-infused rat model, antihypertensive activity (arterial pressure)", "type": "in vivo", "conditions": "3 mg/kg id (duodenal cannula); four hours post-administration; mecamylamine ganglion blockade; A II infusion […]", "procedure": "In accordance with their ability to antagonize angiotensin II, the compounds of this invention show antihypertensive activity in the following A II-infused rat model. Rats are anesthetized with Dial-Urethane(0.60 mL/kg, ip) and the trachea cannulated with PE 240. Either one femoral artery and both femoral veins or the carotid artery and the corresponding jugular vein are cannulated with PE 50. If the jugular vein is cannulated, two cannulas are placed in the one vein. The initial portion of the duodenum (just distal to the stomach) is cannulated with PE 50 via a small midline incision. Arterial pressure and heart rate are measured from the arterial cannula. Ten to 15 min are allowed following surgery for stabilization of arterial pressure. Ganglion blockage is then produced by intravenous administration of mecamylamine at 3 mg/kg (1 mL/kg of a 3 mg/mL solution). Ganglion blockade causes a fall in arterial pressure of about 50 mmHg. Mecamylamine is given every 90 min throughout the remainder of the experiment. An A II infusion is then begun into the other venous cannula at 0.25 μg/kg/min (at 9.6 μL/min). The A II infusion returns arterial pressure to or slightly above the control level. Once arterial pressure has stabilized with the A II infusion, baseline values for mean arterial pressure (MAP) and heart rate are taken. […]", "data": [{"smiles": "O=c1c(O)c(-c2ccccc2-c2ccc(CNc3nc(C(F)(F)F)nc4c3CCCC4)cc2)c1=O", "note": "[Example 1, 3-hydroxy-4-[4'-[[[5,6,7,8-tetrahydro-2-(trifluoromethyl)-4-quinazolinyl]amino]methyl][1,1'-biphenyl]-2-yl]-3-cyclobutene-1,2-dione]", "values": [{"measurement": "average lowering of the A II dependent blood pressure", "result": 52, "unit": "%"}]}]}
